Measured values: patent US20110217391A1, “MATRIX METALLOPROTEASE (MMP) PRODUCTION INHIBITOR” (FUJIFILM CORPORATION, priority 2010, published 2011)
Like-named read-outs stand apart in the source and are kept apart here.

Legend:
[1] = system: Pellicle-derived human normal keratinocytes; conditions: 48 h
Protocol: Pellicle-derived human normal keratinocytes were inoculated into a 10% (v/v) FBS-containing MEM medium on a 12-well culture plate, at a cell density of 1.9×10^4 cells/well. Thereafter, the cells were pre-cultured for 24 hours according to an ordinary method. […] After completion of the culture, the cells were washed with PBS, and a survival test was then carried out according to a common method using MTT. Specifically, a 0.5 mg/mL MTT solution was added to the culture plate, resulting in a concentration of 500 μL/well, and it was then incubated in an incubator for 2 hours. Thereafter, 1.5 mL of dimethyl sulfoxide was added thereto, and the absorbance at a wavelength of 570 nm was then measured. The obtained absorbance was used as an indicator for the number of surviving cells. The number of surviving cells obtained in the case of not adding an evaluation sample was defined as 100, and the cell survival percentage (%) obtained in the case of adding an evaluation sample was obtained.

matrix metalloprotease 9 = experiment: Suppression of production of matrix metalloprotease 9 on epidermis, TGF β1 or β2 induction, ELISA of culture supernatant; assay type: cell-based, human; conditions: keratinocytes, TGF β1 or β2 5 ng/ml, 0.45 μg/ml, 48 hours
Protocol: Thereafter, the medium was exchanged with a test medium which had been prepared by adding TGF (transforming growth factor) β1 or β2 which is known to be released as a matrix metalloprotease 9 production promoting factor from cells upon UV irradiation, to a 1% (v/v) FBS-containing MEM medium to a final concentration of 5 ng/ml, so as to produce a matrix metalloprotease 9 induction test system. […] Specifically, the concentration of a grape extract was set at 100 μg/ml, and the concentration of a Salacia plant extract (the present invention) was set at 100 μg/ml. These test substances were each added to a test medium, and the medium was then exchanged with a fresh one. Thereafter, culture was carried out for 48 hours. After completion of the culture, a culture supernatant was recovered. The recovered supernatant was assayed according to the ELISA method with Matrix Metalloprotease-9, Human, Assay (GE Healthcare, RPN2614). Measurement was carried out in accordance with protocols provided by the distributer, and the value at a wavelength of 630 nm was measured using a wavelength-tunable microplate reader, Sunrise Rainbow Thermo (SUNRISE) and was then quantified. […]

SMILES	cell survival percentage ([1]; 0.15 μg/ml) [%]	effect of suppressing the production of matrix metalloprotease 9 (MMP9 protein expression level) (matrix metalloprotease 9)	cell survival percentage ([1]; 0.45 μg/ml) [%]
CC1=C(/C=C/C(C)=C/C=C/C(C)=C/C(=O)O)C(C)(C)CCC1 [retinoic acid]	≥ 70		
C[C@H]1[C@H](C)CC[C@]2(C(=O)O)CC[C@]3(C)C(=CC[C@@H]4[C@@]5(C)CC[C@H](O)C(C)(C)[C@@H]5CC[C@]43C)[C@H]12 [ursolic acid]		did not have the effect of suppressing the production of matrix metalloprotease 9	≥ 70
